Structures can show the parent of a compound that is named as a salt. Where two headings read alike, the source gives them in different places.
Legend:
[1] = test system: NCI-H292 lung cancer cells; test: FDA drug screening, complete media vs cholesterol-free media with simvastatin (TABLE 2); format: cell-based, human
[2] = test system: NCI-H292 lung cancer cells; test: FDA drug screening, complete media vs cholesterol-free media without statin (TABLE 1); format: cell-based, human
[3] = NCI-H292 cells, cholesterol-free media with simvastatin 0.04 μM, FDA drug library screen (TABLE 2)
[4] = NCI-H292 cells, complete media, FDA drug library screen (TABLE 2)
[5] = Complete minus Cholesterol-free, >0 enhanced anti-cancer activity, about 0 neutral, <0 antagonist
[6] = NCI-H292 cells, cholesterol-free media without statin, FDA drug library screen
[7] = NCI-H292 cells, complete media, FDA drug library screen
[8] = NCI-H292 cells, FDA library drug in cholesterol-free media with simvastatin 0.04 μM
[9] = NCI-H292 cells, FDA library drug in complete media
[10] = complete media vs cholesterol-free media + simvastatin (0.04 μM), >0 enhanced anti-cancer activity, about 0 neutral, <0 antagonist
[11] = NCI-H292 cells, cholesterol-free media without statin
[12] = complete vs cholesterol-free media, greater than 0 enhanced anti-cancer activity, about 0 neutral, below 0 antagonists
[13] = NCI-H292 cells, drug in cholesterol-free media with simvastatin 0.04 μM
[14] = NCI-H292 cells, drug in complete media
[15] = NCI-H292 cells, cholesterol-free media with simvastatin 0.04 μM, cell growth value in FDA drug screen
[16] = NCI-H292 cells, complete media, cell growth value in FDA drug screen
[17] = complete media minus cholesterol-free media + simvastatin, >0 enhanced anti-cancer activity, about 0 neutral, <0 antagonist
[18] = complete vs cholesterol-free media, >0 enhanced anti-cancer activity, about 0 neutral, <0 antagonist
[19] = NCI-H292 cells, FDA drug library screen, cholesterol-free media with simvastatin 0.04 μM
[20] = NCI-H292 cells, FDA drug library screen, complete media
[21] = Complete minus Cholesterol-free, greater than 0 enhanced anti-cancer activity, about 0 neutral, below 0 antagonists
[22] = NCI-H292 cells in cholesterol-free media without statin
[23] = NCI-H292 cells in complete media
[24] = Complete minus Cholesterol-free, greater than 0 enhanced anti-cancer activity, about 0 neutral, below 0 antagonist
[25] = NCI-H292 cells, FDA drug library screen, cholesterol-free media without statin

Compound: Cc1ccc2c(Cl)cc(Cl)c(O)c2n1 [Chlorquinaldol]
- Cholesterol-free media + simvastatin (0.04 μM) [1, 3]: 0.0008861
- Complete Media [1, 4]: 0.007501
- Difference ([1]; complete media minus cholesterol-free media + simvastatin (0.04 μM), >0 enhanced anti-cancer activity, about 0 neutral, <0 antagonist): 0.01
- Difference [2, 5]: 0.01
- Cholesterol-free [2, 6]: 0.003949
- Complete [2, 7]: 0.01849

Compound: CN(C)[C@@H]1C(O)=C(C(N)=O)C(=O)[C@@]2(O)C(O)=C3C(=O)c4c(O)ccc(Cl)c4[C@@](C)(O)[C@H]3C[C@@H]12 [Chlortetracycline (hydrochloride)]
- Cholesterol-free media + simvastatin (0.04 μM) [1, 8]: 1.491
- Complete Media [1, 9]: 1.106
- Difference [1, 10]: −0.38
- Cholesterol-free [2, 11]: 1.583
- Complete ([2]; NCI-H292 cells, complete media): 1.205
- Difference [2, 12]: −0.38

Compound: NS(=O)(=O)c1cc(C2(O)NC(=O)c3ccccc32)ccc1Cl (stereo not drawn) [Chlorthalidone]
- Cholesterol-free media + simvastatin (0.04 μM) [1, 13]: 1.215
- Complete Media [1, 14]: 0.9907
- Difference [1, 10]: −0.22
- Difference [2, 5]: −0.22
- Cholesterol-free [2, 11]: 1.209
- Complete ([2]; NCI-H292 cells, complete media): 0.9927

Compound: CC(C)CCC[C@@H](C)[C@H]1CC[C@H]2[C@@H]3CC=C4C[C@@H](O)CC[C@]4(C)[C@H]3CC[C@]12C [Cholesterol]
- Cholesterol-free media + simvastatin (0.04 μM) [1, 8]: 1.697
- Complete Media [1, 9]: 1.069
- Difference [1, 10]: −0.63
- Difference [2, 5]: −0.27
- Cholesterol-free [2, 11]: 1.34
- Complete ([2]; NCI-H292 cells, complete media): 1.074

Compound: C[N+](C)(C)CCO.O=C([O-])C(O)C(O)C(=O)O (stereo not drawn) [Choline (bitartrate)]
- Cholesterol-free media + simvastatin (0.04 μM) [1]: 1.34
- Complete Media [1]: 1.054
- Difference [1]: −0.29
- Cholesterol-free [2]: 1.646
- Complete [2]: 0.8603
- Difference [2]: −0.79

Compound: C[N+](C)(C)CCO.[Cl-] [Choline (chloride)]
- Cholesterol-free media + simvastatin (0.04 μM) [1, 15]: 0.793
- Complete Media [1, 16]: 0.8494
- Difference [1, 17]: 0.06
- Cholesterol-free [2, 6]: 0.7223
- Complete [2, 7]: 1.217
- Difference [2, 18]: 0.49

Compound: CC(C)(Oc1ccc(C(=O)c2ccc(Cl)cc2)cc1)C(=O)[O-].C[N+](C)(C)CCO [Choline Fenofibrate]
- Cholesterol-free media + simvastatin (0.04 μM) [1, 19]: 1.101
- Complete Media [1, 20]: 1.295
- Difference [1, 17]: 0.19
- Difference [2, 21]: −0.65
- Cholesterol-free [2, 22]: 1.252
- Complete [2, 23]: 0.6045

Compound: Cn1c(=O)c2[nH]cnc2n(C)c1=O [Choline theophyllinate]
- Cholesterol-free media + simvastatin (0.04 μM) [1, 19]: 1.275
- Difference [1, 10]: −0.10
- Difference [2, 5]: −0.20
- Cholesterol-free [2, 11]: 1.108
- Complete ([2]; NCI-H292 cells, complete media): 0.9038

Compound: O=C(O)c1cc(=O)c2ccccc2o1 [Chromocarb]
- Cholesterol-free media + simvastatin (0.04 μM) [1, 8]: 1.932
- Complete Media [1, 9]: 1.471
- Difference [1, 10]: −0.46
- Cholesterol-free [2, 11]: 1.221
- Complete ([2]; NCI-H292 cells, complete media): 0.8012
- Difference [2, 12]: −0.42

Compound: CC(C)C(=O)OCC(=O)[C@@]12O[C@H](C3CCCCC3)O[C@@H]1C[C@H]1[C@@H]3CCC4=CC(=O)C=C[C@]4(C)[C@H]3[C@@H](O)C[C@@]12C [Ciclesonide]
- Cholesterol-free media + simvastatin (0.04 μM) [1, 19]: 0.6652
- Complete Media [1, 20]: 0.5742
- Difference [1, 10]: −0.09
- Difference [2, 5]: −0.28
- Cholesterol-free [2, 11]: 0.7014
- Complete ([2]; NCI-H292 cells, complete media): 0.4234

Compound: Cc1cc(C2CCCCC2)n(O)c(=O)c1 [Ciclopirox (olamine)]
- Cholesterol-free media + simvastatin (0.04 μM) [1, 15]: 0.5971
- Complete Media [1, 16]: 0.715
- Difference [1, 17]: 0.12
- Difference [2, 24]: −0.13
- Cholesterol-free [2, 25]: 0.3971
- Complete [2, 20]: 0.2691

Compound: Cc1cc(C2CCCCC2)n(O)c(=O)c1 [Ciclopirox]
- Cholesterol-free media + simvastatin (0.04 μM) [1, 19]: 0.2219
- Complete Media [1, 20]: 0.6804
- Difference [1, 17]: 0.46
- Difference [2, 24]: −0.10
- Cholesterol-free [2, 25]: 0.2725
- Complete [2, 20]: 0.1741

Compound: Nc1ccn(C[C@@H](CO)OCP(=O)(O)O)c(=O)n1 [Cidofovir]
- Cholesterol-free media + simvastatin (0.04 μM) [1, 15]: 0.9844
- Complete Media [1, 16]: 1.01
- Difference [1, 17]: 0.03
- Cholesterol-free [2, 11]: 2.027
- Complete ([2]; NCI-H292 cells, complete media): 1.556
- Difference [2, 12]: −0.47

Compound: CC1(C)C[C@@H]1C(=O)N/C(=C\CCCCSC[C@H](N)C(=O)O)C(=O)O [Cilastatin]
- Cholesterol-free media + simvastatin (0.04 μM) [1]: 1.258
- Complete Media [1]: 0.85
- Difference [1]: −0.41
- Cholesterol-free [2]: 1.185
- Complete [2]: 0.8515
- Difference [2]: −0.33

Compound: CCOC(=O)[C@H](CCc1ccccc1)N[C@H]1CCCN2CCC[C@@H](C(=O)O)N2C1=O [Cilazapril (monohydrate)]
- Cholesterol-free media + simvastatin (0.04 μM) [1, 13]: 1.266
- Complete Media [1, 14]: 1.104
- Difference [1, 10]: −0.16
- Cholesterol-free [2, 6]: 0.8411
- Complete [2, 7]: 0.9896
- Difference [2, 18]: 0.15

Compound: COCCOC(=O)C1=C(C)NC(C)=C(C(=O)OC/C=C/c2ccccc2)C1c1cccc([N+](=O)[O-])c1 (stereo not drawn) [Cilnidipine]
- Cholesterol-free media + simvastatin (0.04 μM) [1, 13]: 0.9073
- Complete Media [1, 14]: 0.7251
- Difference [1, 10]: −0.18
- Cholesterol-free [2, 6]: 1.441
- Complete [2, 7]: 1.574
- Difference [2, 18]: 0.13

Compound: O=C1CCc2cc(OCCCCc3nnnn3C3CCCCC3)ccc2N1 [Cilostazol]
- Cholesterol-free media + simvastatin (0.04 μM) [1, 19]: 0.8234
- Complete Media [1, 20]: 0.9809
- Difference [1, 17]: 0.16
- Cholesterol-free [2, 11]: 1.501
- Difference [2, 12]: −0.33

Compound: CN/C(=N/CCSCc1nc[nH]c1C)NC#N [Cimetidine]
- Cholesterol-free media + simvastatin (0.04 μM) [1, 8]: 1.358
- Complete Media [1, 9]: 0.952
- Difference [1, 10]: −0.41
- Difference [2, 21]: −0.70
- Cholesterol-free [2, 22]: 1.504
- Complete [2, 23]: 0.8083

Compound: C[N+]1(CC2CC2)[C@@H]2C[C@@H](OC(=O)[C@H](CO)c3ccccc3)C[C@H]1[C@@H]1O[C@@H]12.[Br-] (stereo partly drawn) [Cimetropium (Bromide)]
- Cholesterol-free media + simvastatin (0.04 μM) [1]: 1.704
- Complete Media [1]: 1.429
- Difference [1]: −0.28
- Cholesterol-free [2]: 0.8786
- Complete [2]: 0.8182
- Difference [2]: −0.06

Compound: C[C@@H](NCCCc1cccc(C(F)(F)F)c1)c1cccc2ccccc12 [Cinacalcet (hydrochloride)]
- Cholesterol-free media + simvastatin (0.04 μM) [1, 15]: 0.9304
- Complete Media [1, 16]: 0.9877
- Difference [1, 17]: 0.06
- Cholesterol-free [2, 11]: 1.099
- Complete ([2]; NCI-H292 cells, complete media): 0.7862
- Difference [2, 12]: −0.31

Compound: C[C@@H](NCCCc1cccc(C(F)(F)F)c1)c1cccc2ccccc12 [Cinacalcet]
- Cholesterol-free media + simvastatin (0.04 μM) [1, 15]: 0.8605
- Complete Media [1, 16]: 0.9247
- Difference [1, 17]: 0.06
- Cholesterol-free [2, 6]: 0.8181
- Complete [2, 7]: 1.378
- Difference [2, 18]: 0.56

Compound: C(=C\c1ccccc1)/CN1CCN(C(c2ccccc2)c2ccccc2)CC1 [Cinnarizine]
- Cholesterol-free media + simvastatin (0.04 μM) [1, 15]: 1.061
- Difference [1, 17]: 0.11
- Cholesterol-free [2, 11]: 1.344
- Complete ([2]; NCI-H292 cells, complete media): 0.9213
- Difference [2, 12]: −0.42

Compound: CC(=O)O[C@H]1[C@H]2O[C@]23[C@@H]2CC[C@]4(O)C[C@@H](O)CC[C@]4(C)[C@H]2CC[C@]3(C)[C@H]1c1ccc(=O)oc1 [Cinobufotalin]
- Cholesterol-free media + simvastatin (0.04 μM) [1, 3]: 0.03115
- Complete Media [1, 4]: 0.01046
- Difference ([1]; complete media minus cholesterol-free media + simvastatin (0.04 μM), […]): −0.02
- Difference ([2]; Complete minus Cholesterol-free, […]): −0.04
- Cholesterol-free [2, 6]: 0.003242
- Complete [2, 7]: −0.03407

Compound: CCn1nc(C(=O)O)c(=O)c2cc3c(cc21)OCO3 [Cinoxacin]
- Cholesterol-free media + simvastatin (0.04 μM) [1, 15]: 0.9547
- Complete Media [1, 16]: 0.9782
- Difference [1, 17]: 0.02
- Difference [2, 5]: −0.05
- Cholesterol-free [2, 6]: 0.9965
- Complete [2, 7]: 0.951
